Measurements from article PMC6030209, “Structure-Activity Investigations and Optimisations of Non-metabolite Agonists for the Succinate Receptor 1” (Scientific Reports, 2018).
pEC50: −log10 of the molar value.

How the values were obtained:
[1] = biological target: T1, mSUCNR1 (Mus musculus, UniProt Q99MT6); assay: IP3 turnover assay in mSUCNR1 transfected HEK-293 cells; format: cell-based
T1 construct: FLAG (own knowledge: pCMV-Tag 2B is an N-terminal FLAG vector); host or cells: HEK-293, transient transfection with Lipofectamine-2000
T1 sequence (Q99MT6 1-317): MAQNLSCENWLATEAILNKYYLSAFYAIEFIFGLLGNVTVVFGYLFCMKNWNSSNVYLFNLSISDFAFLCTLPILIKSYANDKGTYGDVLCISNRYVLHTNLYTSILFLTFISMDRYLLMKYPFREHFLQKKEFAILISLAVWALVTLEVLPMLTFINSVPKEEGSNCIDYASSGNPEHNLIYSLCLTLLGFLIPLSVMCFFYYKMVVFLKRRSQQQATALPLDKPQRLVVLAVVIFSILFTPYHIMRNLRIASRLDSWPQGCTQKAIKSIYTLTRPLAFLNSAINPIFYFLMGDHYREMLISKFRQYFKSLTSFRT
Protocol: Receptor constructs for mSUCNR1 and hSUCNR1 were bought from Origene and cloned into the eukaryotic expression vector pCMV-Tag(2B) (Stratagene).
Transient transfection of the HEK-293 cells was done with Lipofectamine-2000 according to manufacturer’s protocol. Cells were supplemented with fresh medium after 5 h.
96-well plates were coated with poly-D-lysine and HEK-293 cells were plated (35.000 cells/well). Cells were transfected for 5 h the following day and subsequently incubated O/N with 0.5 μCi/mL myo[3H]inositol (Perkin Elmer) in 100 μL growth medium. On day 3 cells were washed with 200 µL HBSS/well (Gibco, Life Technologies) followed by a pre-incubation (30 min, 37 °C) with 100 µL HBSS supplemented with 10 mM LiCl. Cells were stimulated with ligand (120 min, 37 °C) and lysed with 50 µL 10 mM formic acid (30 min on ice). In a white 96 well plate 20 µL cell extracts and 80 µL 1:8 diluted YSi scintillation beads (Perkin Elmer) were mixed. The plate was spun down, and a Packard Top Count NXT counter recorded light emission (scintillation) after an 8 h delay.

[2] = physchem; format: physicochemical; details: pH 7.4, aqueous buffer, kinetic from dmso stock, 10 mM PBS7.4, 25 °C
Protocol: Duplicates of a 200 μM solution of the dicarboxylic acids were prepared from 0.01 M PBS7.4 and a 10 mM stock solution in DMSO. The samples were incubated in an Eppendorf® Thermomixer (25 °C, 800 rpm) for 24 h. Afterwards, the samples were centrifuged for 5 min at 11,000 rpm and the supernatant was filtered (0.45 μm PTFE membrane) before analysis by HPLC. The solubility was calculated based on a concentration-absorption curve.

[3] = format: physicochemical; details: after 70 hours in 10 mM PBS7.4, 37 °C
Protocol: Triplicates of a 50 μM solution of the test compounds were prepared from 0.01 M PBS7.4 and a 10 mM stock solution in DMSO. The samples were incubated in an Eppendorf® Thermomixer (37 °C, 650 rpm). The samples were briefly vortexed and 50 μL aliquots were withdrawn at the time points 0 h, 24 h, 48 h etc. and analysed immediately on UPLC. The chemical stability in PBS7.4 was determined at every time point in percentage relative to the 0 h time point.

[4] = logD7.4 determination (1-octanol/PBS7.4 shake flask); format: physicochemical; details: 1-octanol/PBS7.4, pH 7.4
Protocol: A glass vial with screw cap (8 mL) was charged with test compound (40 μL, 10 mM in DMSO), PBS7.4 (0.01 M, 1980 μL), and 1-octanol (1980 μL). The vial was capped and sealed with parafilm and shaken at 700 rpm using an IKA® KS 125 basic shaker for 24 h at room temperature. The parafilm was removed and the sample was allowed to equilibrate for 1 h before analysis. 100 μL of the octanol phase was withdrawn and diluted 1:10 with MeOH(+0.1% formic acid)/MilliQ water (4:1, v/v) and analysed by HPLC/UPLC. The interface was removed and the PBS7.4 phase analysed directly by HPLC/UPLC. All analysis was performed in duplicates and logD values were calculated from the peak areas (mAU*min) and adjusted for difference in injection volume and concentration-absorption effects from the solvents, using two calibration points per compound per solvent, and dilution of the octanol phase. All compounds were analysed in triplicates.

[5] = format: in vitro ADME; details: 2 hours, 37 °C
Protocol: FaSSIF, FeSSGF and FaSSGF were prepared in accordance to the manufacturers procedure, Biorelevant.com. Triplicates of a 50 μM solution of the test compounds were prepared from a 10 mM stock solution in DMSO diluted with FaSSGF/FaSSIF/FeSSIF. The samples were incubated in an Eppendorf® Thermomixer (37 °C, 650 rpm). Samples were withdrawn at 0 min and 120 min, centrifuged (10 min at 10,000 rpm) and the supernatant analysed by HPLC/UPLC. The stability was calculated based on peak area of a 0 point sample.

[6] = format: in vitro ADME, mouse; details: 1 hour, 1 μM, 0.5 mg/mL microsomes
Protocol: Microsomal stability was studied in mouse liver microsomes (0.5 mg/mL) at a final test compound concentration of 1 μM and performed in triplicates in accordance to the published protocol. In short: Prewarmed (37 °C) 0.1 M PBS7.4, 10 mM NADPH in PBS7.4 and test compound (1 mM in DMSO) were added to an Eppendorf® Tube. The samples were incubated for 5 min at 37 °C before addition of newly thawned microsomes. The samples were mixed by gentle vortexing and incubated for 1 h at 37 °C, 300 rpm in an Eppendorf® Thermomixer. Samples were quenched by addition of ice-cold MeOH/MeCN (1:1) and centrifuged for 5 min at 10,000 g. The supernatant was transferred to HPLC vials and stored in the freezer until analysis by HPLC/UPLC. The metabolic stability was calculated based on a 0 min sample. All compounds were analysed in triplicates.

[7] = system: SUCNR1; assay: Active/inactive grouping by EC50 threshold (ALiBERO training set, Table S1); format: cell-based; details: active (1) / inactive (0), EC50 threshold of 10 µM
Excerpt: In brief, starting from the homology model supported by mutagenesis data[4], ALiBERO introduced receptor flexibility via Normal Mode Analysis and Monte Carlo sampling, to generate a small subset of receptor models (pockets). […] For a list of all compounds used in the optimisation protocol, see Table S1. Receptor structures were then chosen based on their ability to discriminate actives from inactives in a retrospective virtual screening using the docking protocol and scoring function in ICM (Molsoft L.L.C., San Diego, CA, USA)[20], as measured by the normalised square root area under the curve (NSQ_AUC). […] The ALiBERO-optimised receptor ensemble was subsequently validated in a virtual ligand screening using an external test set with a higher active:decoy ratio (~1:50).
ALiBERO is an iterative sampling-selection protocol for receptor optimisation that relies on the use of ligand information for selecting the best-performing receptor conformations. Homology models of the mouse SUCNR1 receptor were constructed according to Trauelsen et al.[4] and loaded into ICM (Molsoft L.L.C., San Diego, CA, USA). The structure was converted into an ICM object, thereby assigning protein atom types, optimising hydrogens and His, Pro, Asn, […] and Cys side-chain conformations. […] For a list of all compounds used in the optimisation protocol, see Table S1. ALiBERO was performed using the prepared receptor structure and ligand training set as input. Binding site residues were manually selected based on proximity to the position of MRS2500 in the superimposed structure of the P2Y1 receptor (PDB 4XNW). 100 elastic network normal mode analysis derived conformers were built in order to recreate backbone and side-chain flexibility (T = 300 K). Next, a flexible-ligand static-receptor small-scale virtual screening was performed on each of the receptor conformers, from which several pockets were selected for the following generation. The ligand and decoy molecules were docked into mSUCNR1, represented as pre-calculated potential grids and then sorted according to their ICM VLS scores. The maximum number of complementary pockets for each generation was set to 5 with a maximum of 10 generations. Receptor models were selected based on their combined screening performance, as determined by the normalised square root area under the curve, NSQ_AUC. After each round of virtual screening, an all-atom Monte Carlo side-chain refinement was performed to account for induced-by-ligand changes. NSQ_AUC values were calculated according to Katritch et al.[16].

[8] = system: SUCNR1; details: full agonist on SUCNR1; cited from earlier work

O=C(O)C[C@H](NC(=O)c1cccc(-c2ccc(OC(F)(F)F)cc2)n1)C(=O)O [Compound 31, (6-(4-(Trifluoromethoxy)phenyl)picolinoyl)-L-aspartic acid]
pEC50 [1]: 6.75
mSUCNR1 efficacy, % ([1]; efficacy relative to succinate (100%), IP3 turnover, HEK cells (N = 3)): 69.9 ± 2.2%
solubility kinetic at 24 h [2]: > 200 µM
chemical stability [3]: > 98%
logD at 24 h [4]: -2.13
stability in FaSSGF ([5]; simulated gastrointestinal fluid FaSSGF): stable
stability in FaSSIF ([5]; simulated gastrointestinal fluid FaSSIF): stable
stability in mouse liver microsomes [6]: stable
Active [7]: 1 (active (1))

cis-epoxysuccinic acid
pEC50 [8]: 5.57
